Measured values: US12540131B2 (Merck Sharp & Dohme LLC, priority 2019, dated 2026)

Molecular target: GST tagged truncated human mutant G2019S LRRK2 (Homo sapiens (Human), UniProt Q5S007, G2019S)
Experiment: LRRK2 Km ATP LanthaScreen Assay
Type: biochemical
Settings: G2019S LRRK2, 134 μM ATP (Km ATP), mean values
In short: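 Enzyme (GST-tagged, truncated) was preincubated with compound for 15 min at RT in 50 mM Tris pH 8.5, 10 mM MgCl2, 0.01% Brij-35, 1 mM EGTA, 2 mM DTT and 0.05 mM orthovanadate. Fluorescein-LRRKtide and 134 μM ATP (Km) were then added for 90 min. EDTA and Tb-anti-pERM antibody stopped the reaction; the TR-FRET 520/495 ratio gave 4-parameter IC50s, reported as mean pIC50.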

Chain of GST tagged truncated human mutant G2019S LRRK2 (Q5S007 970-2527 G2019S): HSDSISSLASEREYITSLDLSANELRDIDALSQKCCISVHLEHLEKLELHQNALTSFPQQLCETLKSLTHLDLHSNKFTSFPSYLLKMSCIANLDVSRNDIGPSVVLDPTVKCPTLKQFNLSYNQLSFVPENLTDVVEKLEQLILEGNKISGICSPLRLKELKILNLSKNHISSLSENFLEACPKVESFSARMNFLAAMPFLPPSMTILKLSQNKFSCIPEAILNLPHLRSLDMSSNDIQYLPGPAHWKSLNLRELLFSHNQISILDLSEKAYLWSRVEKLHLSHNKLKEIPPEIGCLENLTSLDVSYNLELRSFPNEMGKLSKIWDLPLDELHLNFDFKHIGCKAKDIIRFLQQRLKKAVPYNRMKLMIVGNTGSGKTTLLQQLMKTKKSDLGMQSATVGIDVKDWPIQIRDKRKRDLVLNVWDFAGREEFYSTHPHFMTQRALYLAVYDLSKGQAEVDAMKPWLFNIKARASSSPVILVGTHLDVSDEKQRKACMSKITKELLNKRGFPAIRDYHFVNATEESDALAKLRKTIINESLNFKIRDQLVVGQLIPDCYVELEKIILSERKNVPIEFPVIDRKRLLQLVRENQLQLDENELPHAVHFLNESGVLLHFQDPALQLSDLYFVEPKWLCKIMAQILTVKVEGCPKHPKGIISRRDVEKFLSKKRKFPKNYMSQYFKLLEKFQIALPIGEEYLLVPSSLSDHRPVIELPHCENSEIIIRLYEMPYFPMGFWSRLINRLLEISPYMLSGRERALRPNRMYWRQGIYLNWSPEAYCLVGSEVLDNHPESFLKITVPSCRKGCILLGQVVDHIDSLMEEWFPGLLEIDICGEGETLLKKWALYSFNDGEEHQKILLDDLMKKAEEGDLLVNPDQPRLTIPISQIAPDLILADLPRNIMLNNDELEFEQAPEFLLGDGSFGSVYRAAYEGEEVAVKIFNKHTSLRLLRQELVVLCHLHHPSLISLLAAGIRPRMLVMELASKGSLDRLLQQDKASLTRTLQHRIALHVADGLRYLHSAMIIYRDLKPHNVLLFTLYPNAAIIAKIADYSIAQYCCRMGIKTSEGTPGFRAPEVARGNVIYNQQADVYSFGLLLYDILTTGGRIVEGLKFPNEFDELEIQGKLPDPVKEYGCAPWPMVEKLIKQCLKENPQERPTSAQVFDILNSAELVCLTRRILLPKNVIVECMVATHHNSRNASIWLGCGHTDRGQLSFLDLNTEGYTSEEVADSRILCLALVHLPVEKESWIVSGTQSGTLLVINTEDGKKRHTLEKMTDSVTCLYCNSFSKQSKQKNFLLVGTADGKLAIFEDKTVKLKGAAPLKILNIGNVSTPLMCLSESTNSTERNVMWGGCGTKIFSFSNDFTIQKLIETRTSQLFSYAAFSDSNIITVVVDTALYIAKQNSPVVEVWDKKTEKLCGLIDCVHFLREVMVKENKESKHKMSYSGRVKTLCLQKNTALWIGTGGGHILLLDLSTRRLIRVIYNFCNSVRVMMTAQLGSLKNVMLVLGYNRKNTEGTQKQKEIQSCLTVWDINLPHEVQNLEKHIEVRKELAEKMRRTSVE

Molecule | LRRK2 pIC50
Cc1nsc(Nc2ncc3cc(Cl)c(C4CCN(C5COC5)CC4)cc3n2)c1Cl [Ex-8.5, 6-chloro-N-(4-chloro-3-methyl-1,2-thiazol-5-yl)-7-[1-(oxetan-3-yl)piperidin-4-yl]quinazolin-2-amine] | >9.20
N#CCCN1CCC(c2cc3nc(Nc4cnn(C5CC5)c4Cl)ncc3cc2Cl)CC1 [Ex-8.6, 3-(4-{6-chloro-2-[(5-chloro-1-cyclopropyl-1H-pyrazol-4-yl)amino]quinazolin-7-yl}piperidin-1-yl)propanenitrile] | 8.17
O=S1(=O)CC(N2CCC(c3cc4nc(Nc5cnn(C6CC6)c5Cl)ncc4cc3Cl)CC2)C1 [Ex-8.7, 3-(4-(6-chloro-2-((5-chloro-1-cyclopropyl-1H-pyrazol-4-yl)amino)quinazolin-7-yl)piperidin-1-yl)thietane 1,1-dioxide] | >9.20
Clc1cc2cnc(Nc3cnn(C4CC4)c3Cl)nc2cc1C1CCN(C2COC2)CC1 [Ex-8.8, 6-chloro-N-(5-chloro-1-cyclopropyl-1H-pyrazol-4-yl)-7-[1-(oxetan-3-yl)piperidin-4-yl]quinazolin-2-amine] | >9.20
CC1(n2ncc(Nc3ncc4cc(Cl)c(C5CCNCC5)cc4n3)c2Cl)CC1 [Ex-8.9, 6-chloro-N-[5-chloro-1-(1-methylcyclopropyl)-1H-pyrazol-4-yl]-7-(piperidin-4-yl)quinazolin-2-amine] | >9.20
CC1(N2CCC(c3cc4nc(Nc5cnn(C6CC6)c5Cl)ncc4cc3Cl)CC2)COC1 [Ex-8.10, 6-chloro-N-(5-chloro-1-cyclopropyl-1H-pyrazol-4-yl)-7-[1-(3-methyloxetan-3-yl)piperidin-4-yl]quinazolin-2-amine] | 9.08
CN1CCC(c2cc3nc(Nc4cnn(C(C)(C)CO)c4Cl)ncc3cc2Cl)CC1 [Ex-8.11, 2-(5-chloro-4-{[6-chloro-7-(1-methylpiperidin-4-yl)quinazolin-2-yl]amino}-1H-pyrazol-1-yl)-2-methylpropan-1-ol] | 8.91
CC1(n2ncc(Nc3ncc4cc(Cl)c(C5CCN(C6CS(=O)(=O)C6)CC5)cc4n3)c2Cl)CC1 [Ex-8.12, 3-(4-(6-chloro-2-((5-chloro-1-(1-methylcyclopropyl)-1H-pyrazol-4-yl)amino)quinazolin-7-yl)piperidin-1-yl)thietane 1,1-dioxide] | 8.92
CC1(n2ncc(Nc3ncc4cc(Cl)c(C5CCN(CCC#N)CC5)cc4n3)c2Cl)CC1 [Ex-8.13, 3-[4-(6-chloro-2-{[5-chloro-1-(1-methylcyclopropyl)-1H-pyrazol-4-yl]amino}quinazolin-7-yl)piperidin-1-yl]propanenitrile] | >9.20
CN1CCC(c2cc3nc(Nc4cnn(C5(C)CC5)c4Cl)ncc3cc2Cl)CC1 [Ex-8.14, 6-chloro-N-[5-chloro-1-(1-methylcyclopropyl)-1H-pyrazol-4-yl]-7-(1-methylpiperidin-4-yl)quinazolin-2-amine] | >9.20
CC1(N2CCC(c3cc4nc(Nc5cnn(C6(C)CC6)c5Cl)ncc4cc3Cl)CC2)COC1 [Ex-8.15, 6-chloro-N-[5-chloro-1-(1-methylcyclopropyl)-1H-pyrazol-4-yl]-7-[1-(3-methyloxetan-3-yl)piperidin-4-yl]quinazolin-2-amine] | >9.20
[2H]C1([2H])OC([2H])([2H])C1N1CCC(c2cc3nc(Nc4cnn(C5CC5)c4Cl)ncc3cc2Cl)CC1 [Ex-8.16, 6-chloro-N-(5-chloro-1-cyclopropyl-1H-pyrazol-4-yl)-7-(1-(oxetan-3-yl-2,2,4,4-d4)piperidin-4-yl)quinazolin-2-amine] | 9.18
COC1CC(Cn2ncc(Nc3ncc4cc(Cl)c(C5CCN(C6COC6)CC5)cc4n3)c2Cl)C1 (stereo not shown) [Ex-8.17, 6-chloro-N-{5-chloro-1-[(3-methoxycyclobutyl)methyl]-1H-pyrazol-4-yl}-7-[1-(oxetan-3-yl)piperidin-4-yl]quinazolin-2-amine] | >9.20
N#CC1(Cn2ncc(Nc3ncc4cc(Cl)c(C5CCN(C6COC6)CC5)cc4n3)c2Cl)CC1 [Ex-8.24, 1-{[5-chloro-4-({6-chloro-7-[1-(oxetan-3-yl)piperidin-4-yl]quinazolin-2-yl}amino)-1H-pyrazol-1-yl]methyl}cyclopropane-1-carbonitrile] | 8.92
OC1(Cn2ncc(Nc3ncc4cc(Cl)c(C5CCN(C6COC6)CC5)cc4n3)c2Cl)CCC1 [Ex-8.26, 1-{[5-chloro-4-({6-chloro-7-[1-(oxetan-3-yl)piperidin-4-yl]quinazolin-2-yl}amino)-1H-pyrazol-1-yl]methyl}cyclobutan-1-ol] | 8.78
CC1(N2CCC(c3cc4nc(Nc5cnn(C67CC(C6)C7)c5Cl)ncc4cc3Cl)CC2)COC1 [Ex-8.38, N-[1-(bicyclo[1.1.1]pentan-1-yl)-5-chloro-1H-pyrazol-4-yl]-6-chloro-7-[1-(3-methyloxetan-3-yl)piperidin-4-yl]quinazolin-2-amine] | >9.20
COCC12CC(n3ncc(Nc4ncc5cc(Cl)c(C6CCN(C7(C)COC7)CC6)cc5n4)c3Cl)(C1)C2 [Ex-8.39, 6-chloro-N-{5-chloro-1-[3-(methoxymethyl)bicyclo[1.1.1]pentan-1-yl]-1H-pyrazol-4-yl}-7-[1-(3-methyloxetan-3-yl)piperidin-4-yl]quinazolin-2-amine] | 8.98
COC[C@]12C[C@](n3ncc(Nc4ncc5cc(Cl)c(C6CCN(C7(C)COC7)CC6)cc5n4)c3Cl)(C1)C2 [Ex-8.40] | >9.20
(3S,4S) or (3R,4R) 6-chloro-N-(5-chloro-1-cyclopropyl-1H-pyrazol-4-yl)-7-(3-fluoropiperidin-4-yl)quinazolin-2-amine [Ex-4.1] | 9.08
